These results are taken from patent publication US20240261267A1, “METHODS FOR TREATING MULTIPLE SCLEROSIS” (Vanda Pharmaceuticals Inc., priority 2021, published 2024).

For series [1] the following is noted: comparison given in brackets; cited from earlier work.
The test system of series [2] is adult subjects with relapsing MS. The experiment in a line: Phase III OPTIMUM study, safety and treatment discontinuation.
Procedure: A prospective, multicenter, randomized, double-blind, active controlled, parallel-group, phase III, superiority study (Phase III OPTIMUM study) was conducted.
Subjects had active disease evidenced by one or more MS attacks with onset within the period of 12 to 1 months prior to baseline EDSS assessment, or by two or more MS attacks with onset within the 24 to 1 months prior to baseline EDSS assessment, or with one or more gadolinium-enhancing (Gd+) lesion(s) of the brain on an MRI performed within 6 months prior to baseline EDSS assessment. Enrolled subjects were ambulatory with an EDSS score of up to 5.5 inclusive. The subjects were treatment-naïve (i.e., no MS disease-modifying therapy received at any time in the past) or previously treated with interferon (IFN) β-1a, IFN β-1b, glatiramer acetate, dimethyl fumarate, or natalizumab.
The treatment period consisted of an up-titration period (from Day 1 to 14) and a maintenance period (Day 15 until EOT).
To reduce the first-dose effect of ponesimod, an up-titration scheme was implemented from Day 1 to Day 14: • Days 1 and 2; 2 mg. • Days 3 and 4; 3 mg. • Days 5 and 6; 4 mg. • Day 7; 5 mg. • Day 8; 6 mg. • Day 9; 7 mg. • Day 10; 8 mg. • Day 11; 9 mg. • Days 12, 13, and 14; 10 mg. • Day 15 until EOT; 20 mg.
The Safety Set (SAF) included all randomized subjects who received at least one dose of study treatment. Subjects were analyzed based on actual treatment taken, not randomized treatment.
A further series relates to primary mouse OPCs. Kind of series: agarose drop migration assay. It counts as cell-based. As to conditions: 3000 nM; after 5 days; normalized to 0.1% DMSO. As for the experimental part:
The effects of ponesimod, a selective S1P1 receptor agonist, and A971432, a selective S1P5 receptor agonist, on oligodendrocyte precursor cell (OPC) migration and differentiation were evaluated. Nine concentrations were tested (logarithmic dilutions ranging from 0.3 nM to 3000 nM, n=6 per concentration). Fingolimod phosphate (P-FTY720, 3000 nM, n=6) was included as a positive control, 0.1% DMSO was included (min.one/plate) as a negative control. Primary mouse OPCs were harvested on postnatal day 0 or 1 and mixed glia cultures were maintained for 14 days. Primary OPCs were then purified using the shake-off method, and used for either a migration assay, or a differentiation assay, as detailed below. To harvest primary mouse OPCs, cortices are isolated from mouse pups on postnatal day 0 or 1 and placed in ice-cold Dulbecco's Modified Eagle Medium (DMEM) (Sigma Aldrich, Overijse, BE). The cortices are homogenized and centrifuged for 5 minutes at 300 G. The supernatant is removed, and a papain solution is added for 30 minutes (125 uL DMEM solution per brain containing 20 units/ml papain and 40 μg/ml DNase, at 37 degrees). Digestion is inactivated by adding 9 ml cold DMEM. The solution is then centrifuged for 5 minutes at […]. The supernatant is carefully removed, and the pellet is resuspended in 2-5 ml culture medium (DMEM with 10% fetal calf serum (Biowest, Nuaillé, FR) and 1% pen/strep (Sigma Aldrich, Overijse, BE)). […] Cell suspension is divided over PLL (Sigma Aldrich, Overijse, BE)-coated flasks (2 brains per flask) and DMEM is added to a final volume of 10 ml. DMEM is replaced on day 4, 7, and 11. On day 7 and 11, insulin (Sigma Aldrich, Overijse, BE) is added to the medium (5μg/ml). On day 14, OPCs are separated from astrocytes by the shake-off method: flasks are placed on a shaker for 45 minutes at 75 rpm (37 degrees). […] The extent of cell migration is then measured after 5 days using Incucyte imaging analysis and fluorescent endpoint staining. For each well, the 15-20 cells that migrated the furthest away from the agarose drop are measured and averaged. […]

[3] abbreviates: Safety Set, ponesimod 20 mg, teriflunomide 14 mg.
The mark [4] stands for this setting: ponesimod 20 mg, teriflunomide 14 mg.

With `CCCCCCCCc1ccc(CCC(N)(CO)CO)cc1` [fingolimod], the “ECG HR effect: nadir” value in series [1] was around 6 h.
Consider `CCc1cc(/C(C)=N/OCc2ccc(C3CCCCC3)c(C(F)(F)F)c2)ccc1CN1CC(C(=O)O)C1` [siponimod], for which, in series [1], the “ECG HR effect: nadir” value was 3 to 4 h.
Turning to `C/C(O)=C(\C#N)C(=O)Nc1ccc(C(F)(F)F)cc1` [teriflunomide], in series [2] (Day 1, all with pre-treatment HR<55 bpm), the “subjects with asymptomatic post-dose HR≤40 bpm” value is “none”. In series [2] (setting [3]), the “AEs leading to premature discontinuation of study drug, SOC Eye disorders” value was 0 n; the “AEs leading to premature discontinuation of study drug, SOC Respiratory, thoracic and mediastinal disorders” value was 0 n; the “AEs leading to premature discontinuation of study drug, SOC Vascular disorders” value came to 0 n; the “Subject with at least one AE leading to study drug discontinuation” value was determined as 6.0%. In series [2] (setting [3]), the “Subject with at least one Serious AE” value was determined as 8.1%, the “Subject with at least one treatment-emergent AE” value is given as 88.2%, the “Treatment-emergent AESI: Hepatobiliary disorders/Liver enzyme abnormality” value amounted to 14.5% and the “Treatment-emergent AESI: Hypertension” value amounted to 9.0%. Besides, the “Treatment-emergent AESI: Pulmonary events” value in series [2] (setting [3]) is recorded as 2.7%. In addition, the “mean heart rate reduction compared to pre-dose” value in series [2] (at 2-hours post dose, Day 1) was −1.7 bpm. Further, in series [2] (on Day 1, Safety Set), the “AESI heart rate and rhythm: Atrioventricular block first degree” value was determined as 0 n; the “AESI heart rate and rhythm: Bradycardia” value is reported as 0 n; the “AESI heart rate and rhythm: Bundle branch block left” value was determined as 0 n; the “AESI heart rate and rhythm: Bundle branch block right” value is on record as 0 n. For the same compound, in series [2] (on Day 1, Safety Set), the “AESI heart rate and rhythm: Defect conduction intraventricular” value is 0 n; the “AESI heart rate and rhythm: Sinus arrhythmia” value is recorded as 0 n; the “AESI heart rate and rhythm: Sinus bradycardia” value is given as 0 n. Besides, the “AESI effect on heart rate and rhythm (including hypotension): Subjects with at least one AE” value in series [2] (on Day 1, Safety Set, ponesimod arm (2 mg on Day 1), teriflunomide 14 mg) is reported as 0.4%. Also, in series [2] (setting [4]), the “TEAE ALT increased” value turned out to be 9.4%, the TEAE headache is given as 12.7%, the TEAE nasopharyngitis was found to be 16.8% and the “TEAE upper respiratory tract infection” value was found to be 10.4%. In series [2] (setting [4]), the “proportion of subjects who experienced ALT increase>3×ULN” value was 8.3%, the “proportion of subjects who experienced ALT increase>8×ULN” value is reported as 2.1% and the “subjects discontinued due to AEs or tolerability related reasons” value worked out at 2.5%.
As for fingolimod phosphate, the migration distance entry in the series on primary mouse OPCs is on record as “significantly decreased migration distance”.
